Data set [1] is described as follows: Glass transition temperature (Tg) by differential scanning calorimetry. It counts as physicochemical. How it is done:
The glass transition temperature (Tg) is determined for premixes using differential scanning calorimetry and the results are below:
The glass transition temperatures of the premix compositions are greater than that of dexlansoprazole (amorphous).
For orientation: In DSC, transitions show as peaks or steps in heat flow.

Data set [2] can be described thus: Particle size distribution using a Malvern instrument. Type of data set: physicochemical. From the text:
The D10, D50, and D90 values are useful ways for indicating a particle size distribution. D90 is the size value where at least 90 volume percent of the particles have a size smaller than the said value; Likewise D10 refers to 10 volume percent of the particles having a size smaller than the said value. D50 refers to at least 50 volume percent of the particles having a size smaller than the said value and D[4,3] value refers to the mean particle size. Methods for determining D10, D50 D90 and D[4,3] include laser light diffraction, such as using equipment sold by Malvern Instruments Ltd., Malvern, Worcestershire, United Kingdom. Other types of equipment may be used, as is known in the art.
The premixes of Example 1 and Example 2 are analyzed for particle size distribution using a Malvern instrument and the results are below: […]

Each structure is given as a SMILES string.

`Cc1c(OCC(F)(F)F)ccnc1C[S@@+]([O-])c1nc2ccccc2[nH]1` [Amorphous dexlansoprazole, (+)-2-[(R)-{[3-methyl-4-(2,2,2-trifluoroethoxy)pyridin-2-yl]methyl}sulfinyl]-1H-benzimidazole]: in data set [1], the “Tg (glass transition temperature)” value is 55.48 °C. Moreover, in data set [2], the D10 came to 9.061 μm, the D50 was determined as 22.182 μm and the D90 is listed as 42.598 μm.

(Values after patent US20120231073A1, “DEXLANSOPRAZOLE COMPOSITIONS” (DR. REDDY'S LABORATORIES, INC., priority 2008, published 2012).)
